Laboratory results: patent US20250332266A1, “COMPOUNDS FOR THE DEGRADATION OF EGFR KINASE” (BeiGene Switzerland GmbH, priority 2022, published 2025)

Legend:
[1] = molecular target: EGFR Del19/T790M/C797S (H1975-clone #28) (Homo sapiens, UniProt P00533, T790M/C797S, form not given); assay: EGFR degradation, HTRF total-EGFR assay, H1975-clone #28 (DTC); assay type: cell-based; details: H1975-clone #28 Del19/T790M/C797S, 16 h treatment
Method in brief: (§1)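 H1975 clones with endogenous EGFR knocked out and homozygous exogenous EGFR mutants (#28 Del19/T790M/C797S; #25 L858R/T790M/C797S) treated 16 h at 37 °C, 8 doses, 5-fold from 10 μM, 0.2% DMSO. Total EGFR measured by HTRF on lysates, normalised to DMSO controls; DC50 and Dmax from curve fit.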

[2] = molecular target: T1, EGFR L858R/T790M/C797S (H1975-clone #25) (Homo sapiens, UniProt P00533, C797S/L858R/T790M); assay: EGFR degradation, HTRF total-EGFR assay, H1975-clone #25 (LTC); assay type: cell-based; details: H1975-clone #25 L858R/T790M/C797S, 16 h treatment
T1 construct: expressed in transfected cells; host or cells: H1975 (clone #25), lentiviral transduction, endogenous EGFR knocked out
Method in brief: as §1

Molecule | Degradation H1975 # 28 DTC [1] | Degradation H1975 # 25-LTC [2]
Cc1cc2cc(n1)-c1cnn(C)c1OC[C@H]1C[C@@H](CN3/C(=N/C2=O)Nc2ccc(N4C5CCC4CN(C4CCN(c6ccc(C7CCC(=O)NC7=O)nc6C)CC4)C5)cc23)C1 (stereo partly drawn) [Example 127, 3-(5-(4-(8-((7^1s,7^3s,E)-1^1,2^6-dimethyl-3-oxo-5^2,5^3-dihydro-1^1H,5^1H-9-oxa-4-aza-5(2,1)-benzo[d]imidazola-2(2,4)-pyridina-1(4,5)-pyrazola-7(1,3)-cyclobutanacyclononaphane-5^6-yl)-3,8-diazabicyclo[3.2.1]octan-3-yl)piperidin-1-yl)-6-methylpyridin-2-yl)piperidine-2,6-dione] | 85.5 | 96.0
Cc1cc2cc(n1)-c1cnn(C)c1OC[C@H]1C[C@@H](CN3/C(=N/C2=O)Nc2ccc(N4C5CCC4CN(C4CCN(c6cc(F)c([C@H]7CCC(=O)NC7=O)c(F)c6)CC4)C5)cc23)C1 [Example 128, (3R)-3-(4-(4-(8-((7^1s,7^3s,E)-1^1,2^6-dimethyl-3-oxo-5^2,5^3-dihydro-1^1H,5^1H-9-oxa-4-aza-5(2,1)-benzo[d]imidazola-2(2,4)-pyridina-1(4,5)-pyrazola-7(1,3)-cyclobutanacyclononaphane-5^6-yl)-3,8-diazabicyclo[3.2.1]octan-3-yl)piperidin-1-yl)-2,6-difluorophenyl)piperidine-2,6-dione] | 75.7 | 73.7
Cc1cc2cc(n1)-c1cnn(C)c1OC[C@H]1C[C@@H](CN3/C(=N/C2=O)Nc2ccc(N4CCC5(CCN(C6CCN(c7cc(F)c([C@H]8CCC(=O)NC8=O)c(F)c7)CC6)C5)C4)cc23)C1 (stereo partly drawn) [Example 129, (3R)-3-(4-(4-(7-((7^1s,7^3s,E)-1^1,2^6-dimethyl-3-oxo-5^2,5^3-dihydro-1^1H,5^1H-9-oxa-4-aza-5(2,1)-benzo[d]imidazola-2(2,4)-pyridina-1(4,5)-pyrazola-7(1,3)-cyclobutanacyclononaphane-5^6-yl)-2,7-diazaspiro[4.4]nonan-2-yl)piperidin-1-yl)-2,6-difluorophenyl)piperidine-2,6-dione] | 73.2 | 72.7
Cc1cc2cc(n1)-c1cnn(C)c1OC[C@H]1C[C@@H](CN3/C(=N/C2=O)Nc2ccc(N4C5CCC4CN(C4CCN(c6cnc(C7CCC(=O)NC7=O)cc6C)CC4)C5)cc23)C1 (stereo partly drawn) [Example 130, 3-(5-(4-(8-((7^1s,7^3s,E)-1^1,2^6-dimethyl-3-oxo-5^2,5^3-dihydro-1^1H,5^1H-9-oxa-4-aza-5(2,1)-benzo[d]imidazola-2(2,4)-pyridina-1(4,5)-pyrazola-7(1,3)-cyclobutanacyclononaphane-5^6-yl)-3,8-diazabicyclo[3.2.1]octan-3-yl)piperidin-1-yl)-4-methylpyridin-2-yl)piperidine-2,6-dione] | 83.4 | 90.7
Cc1cc2cc(n1)-c1cnn(C)c1OC[C@H]1C[C@@H](CN3/C(=N/C2=O)Nc2ccc(N4CCN(C5CN(C6CCN(c7cnc(C8CCC(=O)NC8=O)cc7C)CC6)C5)CC4)cc23)C1 (stereo partly drawn) [Example 131, 3-(5-(4-(3-(4-((7^1s,7^3s,E)-1^1,2^6-dimethyl-3-oxo-5^2,5^3-dihydro-1^1H,5^1H-9-oxa-4-aza-5(2,1)-benzo[d]imidazola-2(2,4)-pyridina-1(4,5)-pyrazola-7(1,3)-cyclobutanacyclononaphane-5^6-yl)piperazin-1-yl)azetidin-1-yl)piperidin-1-yl)-4-methylpyridin-2-yl)piperidine-2,6-dione] | 68.0 | 84.8
Cc1cc2cc(n1)-c1cnn(C)c1OC[C@H]1C[C@@H](CN3/C(=N/C2=O)Nc2ccc(N4CC5CCC4CN5C4CCN(c5cnc(C6CCC(=O)NC6=O)cc5C)CC4)cc23)C1 (stereo partly drawn) [Example 132, 3-(5-(4-(5-((7^1s,7^3s,E)-1^1,2^6-dimethyl-3-oxo-5^2,5^3-dihydro-1^1H,5^1H-9-oxa-4-aza-5(2,1)-benzo[d]imidazola-2(2,4)-pyridina-1(4,5)-pyrazola-7(1,3)-cyclobutanacyclononaphane-5^6-yl)-2,5-diazabicyclo[2.2.2]octan-2-yl)piperidin-1-yl)-4-methylpyridin-2-yl)piperidine-2,6-dione] | 77.3 | 88.3
Cc1cc2cc(n1)-c1cnn(C)c1OC[C@H]1C[C@@H](CN3/C(=N/C2=O)Nc2ccc(N4CCN([C@@H]5CCN(c6cnc(C7CCC(=O)NC7=O)cc6C)C[C@@H]5F)CC4)cc23)C1 (stereo partly drawn) [Example 133, 3-(5-((3S,4R)-4-(4-((7^1s,7^3S,E)-1^1,2^6-dimethyl-3-oxo-5^2,5^3-dihydro-1^1H,5^1H-9-oxa-4-aza-5(2,1)-benzo[d]imidazola-2(2,4)-pyridina-1(4,5)-pyrazola-7(1,3)-cyclobutanacyclononaphane-5^6-yl)piperazin-1-yl)-3-fluoropiperidin-1-yl)-4-methylpyridin 2-yl)piperidine-2,6-dione] | 88.8 | 92.1
Cc1cc2cc(n1)-c1cnn(C)c1OC[C@H]1C[C@@H](CN3/C(=N/C2=O)Nc2ccc(N4CCN([C@H]5CCN(c6cnc(C7CCC(=O)NC7=O)cc6C)C[C@H]5F)CC4)cc23)C1 (stereo partly drawn) [Example 134, 3-(5-((3R,4S)-4-(4-((7^1s,7^3R,E)-1^1,2^6-dimethyl-3-oxo-5^2,5^3-dihydro-1^1H,5′H-9-oxa-4-aza-5(2,1)-benzo[d]imidazola-2(2,4)-pyridina-1(4,5)-pyrazola-7(1,3)-cyclobutanacyclononaphane-5^6-yl)piperazin-1-yl)-3-fluoropiperidin-1-yl)-4-methylpyridin-2-yl)piperidine-2,6-dione] | 89.6 | 92.0
Cc1cc2cc(n1)-c1cnn(C)c1OC[C@H]1C[C@@H](CN3/C(=N/C2=O)Nc2ccc(N(C)C4CC5(C4)CN(C4CCN(c6cc(F)c(C7CCC(=O)NC7=O)c(F)c6)CC4)C5)cc23)C1 (stereo partly drawn) [Example 136, (R)-3-(4-(4-(6-(((7^1s,7^3s,E)-1^1,2^6-dimethyl-3-oxo-5^2,5^3-dihydro-1^1H,5^1H-9-oxa-4-aza-5(2,1)-benzo[d]imidazola-2(2,4)-pyridina-1(4,5)-pyrazola-7(1,3)-cyclobutanacyclononaphane-5^6-yl)(methyl)amino)-2-azaspiro[3.3]heptan-2-yl)piperidin-1-yl)-2,6-difluorophenyl)piperidine-2,6-dione] | 85.0 | 87.0
Cc1cc2cc(n1)-c1cnn(C)c1OC[C@H]1C[C@@H](CN3/C(=N/C2=O)Nc2ccc(N4CCN(C5CN(C6CCN(c7cc(F)c([C@H]8CCC(=O)NC8=O)c(F)c7)CC6)C5)CC4)cc23)C1 [Example 137, (R)-3-(4-(4-(3-(4-((7^1s,7^3s,E)-1^1,2^6-dimethyl-3-oxo-5^2,5^3-dihydro-1^1H,5^1H-9-oxa-4-aza-5(2,1)-benzo[d]imidazola-2(2,4)-pyridina-1(4,5)-pyrazola-7(1,3)-cyclobutanacyclononaphane-5^6-yl)piperazin-1-yl)azetidin-1-yl)piperidin-1-yl)-2,6-difluorophenyl)piperidine-2,6-dione] | 80.2 | 77.3
Cc1cc2cc(n1)-c1cnn(C)c1OC[C@H]1C[C@@H](CN3/C(=N/C2=O)Nc2ccc(N4CCN([C@@H]5CCN(c6cnc(C7CCC(=O)NC7=O)cc6C)C[C@H]5F)CC4)cc23)C1 (stereo partly drawn) [Example 138, 3-(5-((3R,4R)-4-(4-((7^1s,7^3S,E)-1^1,2^6-dimethyl-3-oxo-5^2,5^3-dihydro-1^1H,5^1H-9-oxa-4-aza-5(2,1)-benzo[d]imidazola-2(2,4)-pyridina-1(4,5)-pyrazola-7(1,3)-cyclobutanacyclononaphane-5^6-yl)piperazin-1-yl)-3-fluoropiperidin-1-yl)-4-methylpyridin-2-yl)piperidine-2,6-dione] | 90.9 | 88.4
(R)-3-(4-(4-(4-((7^1s,7^3s,E)-1^1,2^6-dimethyl-3-oxo-5^2,5^3-dihydro-1^1H,5^1H-9-oxa-4-aza-5(2,1)-benzo[d]imidazola-2(2,4)-pyridina-1(4,5)-pyrazola-7(1,3)-cyclobutanacyclononaphane-5^6-yl)piperazin-1-yl)piperidin-1-yl)-2,6-difluorophenyl)piperidine-2,6-dione [Example 6] | 91.2 | 91.7
